“Also recorded” adds a separate entry of the source.
Tests used:
[1] = test system: Arabidopsis thaliana plants; assay: SOA1 phenotypic analysis of herbicide-treated Arabidopsis plants; assay type: in vivo; settings: for characteristic symptoms (phenotypic analysis): herbicide-treated Arabidopsis; for Symptom Class: three-week-old Arabidopsis treated with herbicide, phenotypes shown in FIG. 12; for leafCurling (Dev.) / leafTwisting (Dev.) / leafWidth (Dev.) / matureLeafAnthocyanins (Dev.) / matureLeafChlorosis (Dev.) / matureLeafNecrosis (Dev.) / newLeafAnthocyanins (Dev.) / newLeafChlorosis (Dev.) / newLeafNecrosis (Dev.) / pointedLeaves (Dev.): numeric value standardized to mock treated tissues; for tMic (Dev.): score for time to full symptoms at minimum inhibitory concentration
[2] = test system: Arabidopsis thaliana; assay: MOA1 biochemical (metabolite) profiling by LC-MS and GC-MS of sprayed Arabidopsis; settings: for commonly regulated (putative stress-related) metabolites: MOA1, 20 minutes and 1 hour after spraying; for Number of Metabolites Changed: (unknown #) / Number of Metabolites Changed: Total #: 1 hr
[3] = test system: Magnaporthe grisea; assay type: cell-based
[4] = test system: Arabidopsis thaliana; assay: MOA1 gene expression profiling (22,000 gene array) of sprayed Arabidopsis; settings: for No. of Lethal Genes Altered: regulated genes (1 hr) found in list of genes essential for plant growth and development; for extent of gene expression perturbation compared to the other treatments: 1 hr
[5] = test system: Saccharomyces cerevisiae wild type strain BY4743; assay: AF1 metabolite analysis (GC-MS, LC-MS) of yeast treated with antifungal drugs; assay type: cell-based
[6] = test system: Arabidopsis plants; settings: nitrate addition to N-starved Arabidopsis; cited from earlier work

O=C(O)c1cc(Oc2ccc(C(F)(F)F)cc2Cl)ccc1[N+](=O)[O-] [Acifluorfen]
characteristic symptoms (phenotypic analysis) [1]: Necrotic leaf flecks
Symptom Class [1]: 6

C[n+]1ccc(-c2cc[n+](C)cc2)cc1 [Paraquat]
characteristic symptoms (phenotypic analysis) [1]: rapid and widespread leaf necrosis
leafCurling (Dev.) [1]: 2
leafTwisting (Dev.) [1]: 0
leafWidth (Dev.) [1]: −1
matureLeafAnthocyanins (Dev.) [1]: 0
matureLeafChlorosis (Dev.) [1]: 1
matureLeafNecrosis (Dev.) [1]: 4
newLeafAnthocyanins (Dev.) [1]: 0
newLeafChlorosis (Dev.) [1]: 1
newLeafNecrosis (Dev.) [1]: 4
pointedLeaves (Dev.) [1]: 1
tMic (Dev.) [1]: 2
Symptom Class [1]: 7

CNc1cnn(-c2cccc(C(F)(F)F)c2)c(=O)c1Cl [Norfluazon, Norflurazon]
commonly regulated (putative stress-related) metabolites [2]: Only a few, if any, stress-related metabolites were observed

CP(=O)(O)CCC(N)C(=O)O (stereo not shown) [Glufosinate]
characteristic symptoms (phenotypic analysis) [1]: Chlorosis and leaf curling
leafCurling (Dev.) [1]: 2
leafTwisting (Dev.) [1]: 1
leafWidth (Dev.) [1]: −2
matureLeafAnthocyanins (Dev.) [1]: 0
matureLeafChlorosis (Dev.) [1]: 3
matureLeafNecrosis (Dev.) [1]: 0
newLeafAnthocyanins (Dev.) [1]: 0
newLeafChlorosis (Dev.) [1]: 3
newLeafNecrosis (Dev.) [1]: 0
pointedLeaves (Dev.) [1]: 1
tMic (Dev.) [1]: 1
Symptom Class [1]: 3
Number of Metabolites Changed: (unknown #) ([2]; p < 0.05): 4(4)
Number of Metabolites Changed: Total # ([2]; p < 0.05): 4(4)
Number of Metabolites Changed: (unknown #) ([2]; p < 0.11): 9(9)
Number of Metabolites Changed: Total # ([2]; p < 0.11): 9(9)
commonly regulated (putative stress-related) metabolites [2]: Only a few, if any, stress-related metabolites were observed
nitrogen sources M. grisea can utilize in the presence of the compound [3]: only able to utilize glutamine and glutamate as nitrogen sources
No. of Lethal Genes Altered [4]: 10

OC(Cn1cncn1)(Cn1cncn1)c1ccc(F)cc1F [Fiuconazole]
Fold Change of hypoxanthine ([5]; nLC): 0.7757

CC(C)N1C(=O)c2ccccc2NS1(=O)=O [Bentazon]
characteristic symptoms (phenotypic analysis) [1]: rapid and widespread leaf necrosis
Symptom Class [1]: 7

COc1nc(C)nc(NC(=O)NS(=O)(=O)c2ccccc2Cl)n1 [Chlorsulfuron]
characteristic symptoms (phenotypic analysis) [1]: anthocyanin accumulation in the older leaves accompanied by chlorosis of the newly emerging leaves
Symptom Class [1]: 4
No. of Lethal Genes Altered [4]: 8

O=C(O)c1ccccc1C(=O)Nc1cccc2ccccc12 [Naptalam]
extent of gene expression perturbation compared to the other treatments [4]: fewest gene expression perturbations
No. of Lethal Genes Altered [4]: 3

COC(=O)NS(=O)(=O)c1ccc(N)cc1 [Asulam]
extent of gene expression perturbation compared to the other treatments [4]: fewest gene expression perturbations
No. of Lethal Genes Altered [4]: 5

c1cc[n+]2c(c1)-c1cccc[n+]1CC2 [Diquat]
characteristic symptoms (phenotypic analysis) [1]: rapid and widespread leaf necrosis
leafCurling (Dev.) [1]: 2
leafTwisting (Dev.) [1]: 0
leafWidth (Dev.) [1]: −2
matureLeafAnthocyanins (Dev.) [1]: 0
matureLeafChlorosis (Dev.) [1]: 1
matureLeafNecrosis (Dev.) [1]: 4
newLeafAnthocyanins (Dev.) [1]: 0
newLeafChlorosis (Dev.) [1]: 1
newLeafNecrosis (Dev.) [1]: 4
pointedLeaves (Dev.) [1]: 1
tMic (Dev.) [1]: 2
Symptom Class [1]: 7

CN(C)C(=O)Nc1ccc(Cl)c(Cl)c1 [Diuron]
characteristic symptoms (phenotypic analysis) [1]: rapid and widespread leaf necrosis
leafCurling (Dev.) [1]: 1
leafTwisting (Dev.) [1]: 0
leafWidth (Dev.) [1]: −2
matureLeafAnthocyanins (Dev.) [1]: 0
matureLeafChlorosis (Dev.) [1]: 2
matureLeafNecrosis (Dev.) [1]: 4
newLeafAnthocyanins (Dev.) [1]: newLeafAnthocyanins 0
newLeafChlorosis (Dev.) [1]: 2
newLeafNecrosis (Dev.) [1]: 4
pointedLeaves (Dev.) [1]: 1
tMic (Dev.) [1]: 1
Symptom Class [1]: 7

O=C(O)COc1ccc(Cl)cc1Cl [2,4-D]
leafCurling (Dev.) [1]: 1
leafTwisting (Dev.) [1]: 2
leafWidth (Dev.) [1]: −1
matureLeafAnthocyanins (Dev.) [1]: 1
matureLeafChlorosis (Dev.) [1]: 2
matureLeafNecrosis (Dev.) [1]: 0
newLeafAnthocyanins (Dev.) [1]: 0
newLeafChlorosis (Dev.) [1]: 1
newLeafNecrosis (Dev.) [1]: 0
pointedLeaves (Dev.) [1]: 0
tMic (Dev.) [1]: 2
Symptom Class [1]: 5

CC(C)C1(C)N=C(c2ncccc2C(=O)O)NC1=O (stereo not shown) [Imazapyr]
characteristic symptoms (phenotypic analysis) [1]: anthocyanin accumulation in the older leaves accompanied by chlorosis of the newly emerging leaves
Symptom Class [1]: 4
commonly regulated (putative stress-related) metabolites [2]: Only a few, if any, stress-related metabolites were observed

O=C(O)CNCP(=O)(O)O [Glyphosate]
characteristic symptoms (phenotypic analysis) [1]: anthocyanin accumulation in the older leaves accompanied by chlorosis of the newly emerging leaves
leafCurling (Dev.) [1]: 0
leafTwisting (Dev.) [1]: 0
leafWidth (Dev.) [1]: 0
matureLeafAnthocyanins (Dev.) [1]: 3
matureLeafChlorosis (Dev.) [1]: 1
matureLeafNecrosis (Dev.) [1]: 3
newLeafAnthocyanins (Dev.) [1]: 1
newLeafChlorosis (Dev.) [1]: 2
newLeafNecrosis (Dev.) [1]: 0
pointedLeaves (Dev.) [1]: 1
tMic (Dev.) [1]: 2
Symptom Class [1]: 4
tyrosine level ([2]; MOA1 metabolite data, one hour, relative to the control): decreased relative to the control after one hour
Tier 4: growth of M. grisea with ammonium or glutamine as nitrogen source [3]: Little growth defect
growth of M. grisea with nitrate, nitrite, or glutamate as the sole nitrogen source [3]: inhibited growth
comparison of growth results for Tiers 3 and 4 (Unknown 4 versus glyphosate) ([3]; 250 μg/ml): nearly identical as compared to Unknown 4
growth inhibition of M. grisea and its remediation ([3]; glyphosate at 1.0 mg/ml): remediated by inclusion of aromatic amino acids

O=C(O)Cn1c(=O)sc2cccc(Cl)c21 [Benazolin]
Symptom Class [1]: 5

COc1c(Cl)ccc(Cl)c1C(=O)O [Dicamba]
Symptom Class [1]: 5

CCNc1nc(Cl)nc(NC(C)C)n1 [Atrazine]
characteristic symptoms (phenotypic analysis) [1]: rapid and widespread leaf necrosis
Symptom Class [1]: 7

CC[C@@H]([C@H](C)O)n1ncn(-c2ccc(N3CCN(c4ccc(OC[C@@H]5CO[C@@](Cn6cncn6)(c6ccc(F)cc6F)C5)cc4)CC3)cc2)c1=O [Posaconazote]
Fold Change of porphobilinogen ([5]; platform nLC, p-Value 1): 0

CC[C@@H]([C@H](C)O)n1ncn(-c2ccc(N3CCN(c4ccc(OC[C@@H]5CO[C@@](Cn6cncn6)(c6ccc(F)cc6F)C5)cc4)CC3)cc2)c1=O [Posaconazoie]
Fold Change luteolin ([5]; platform LC): 0

CCc1cnc(C2=NC(C)(C(C)C)C(=O)N2)c(C(=O)O)c1 (stereo not shown) [Imazethapyr]
characteristic symptoms (phenotypic analysis) [1]: anthocyanin accumulation in the older leaves accompanied by chlorosis of the newly emerging leaves
Symptom Class [1]: 4

CS(=O)(=O)c1cc(C(F)(F)F)ccc1C(=O)c1cnoc1C1CC1 [Isoxaflutole]
Alpha-tocopherol levels ([2]; MOA1 metabolite data, early time points): not significantly changed relative to the control
tyrosine and phenylalanine levels ([2]; MOA1 metabolite data, relative to the control): up-regulated relative to the control; also recorded: began to accumulate relative to the control after one hour
No. of Lethal Genes Altered [4]: 15

CCc1cccc(C)c1N(C(=O)CCl)C(C)COC (stereo not shown) [Metolachlor]
Symptom Class [1]: 7

O=[N+]([O-])O [Nitrate, nitrate]
Nitrate Regulation of Glutamate synthetase [6]: ↑
Nitrate Regulation of Glutamine synthetase(2) [6]: ↑
Nitrate Regulation of MADs Box(2) [6]: ↓
Nitrate Regulation of MYB transcription factor [6]: ↑
Nitrate Regulation of Malate Dehydrogenase [6]: ↑
Nitrate Regulation of Nitrate transporter [6]: ↑
Nitrate Regulation of Phosphate transporter [6]: ↑
Nitrate Regulation of Transaldolase [6]: ↑
Nitrate Regulation of Transketolase [6]: ↑

CSc1nnc(C(C)(C)C)c(=O)n1N [Metribuzin]
characteristic symptoms (phenotypic analysis) [1]: rapid and widespread leaf necrosis
Symptom Class [1]: 7

COC(=O)c1cc(Oc2ccc(Cl)cc2Cl)ccc1[N+](=O)[O-] [Bifenox]
characteristic symptoms (phenotypic analysis) [1]: Necrotic leaf flecks
Symptom Class [1]: 6
